Test results as given in the METLIN SMRT retention time set (Domingo-Almenara et al. 2019).

assay: gradient 5% acetonitrile 3 min, to 50% in 2 min, to 85% in 15 min, held 3 min, 100 µL/min; conditions: column: Zorbax Extend-C18 2.1 x 50 mm; eluents: water / acetonitrile, 0.1% formic acid
Procedure, shortened: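 The mobile phases were water and acetonitrile, each with 0.1% formic acid, pumped at 100 μL/min through a Zorbax Extend-C18 column (2.1 × 50 mm, 1.8 μm). Pure standards were injected as mixtures of ~100 molecules and detected by a quadrupole time-of-flight mass spectrometer in positive and negative ionization mode. Retention time came from computationally picked adduct peaks, each inspected by hand.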

Row | SMILES | RP-LC retention time [s]
1 | Cc1ccc(F)cc1NC(=O)c1cnc(-c2ccc(F)cc2)nc1-c1ccncc1 | 1060
2 | O=c1c2sccc2n(Cc2nc(-c3ccccc3)no2)c(=O)n1-c1ccccc1 | 932
3 | CCN1C(=O)COc2ccc(-c3noc(-c4ccc5cc[nH]c5c4)n3)cc21 | 1040
4 | CCCC(=O)Nc1ccc(-n2cnc(C(=O)NC)c2)nc1 | 598
5 | Cc1ccc2c(Nc3ccc(S(N)(=O)=O)cc3)c(C(=O)N3CCSCC3)cnc2n1 | 1370
6 | COc1ccc2c(C)c(CCC(=O)N[C@H](C(=O)O)c3ccccc3)c(=O)oc2c1OC | 719
7 | Cc1nn(C(C)C(=O)NCCCN2CCCCC2)c(=O)c2c1sc1ccccc12 (stereo not drawn) | 680
8 | CC(=O)c1ccc(S(=O)(=O)NCCC2CCN(C(=O)c3ccccc3)CC2)cc1 | 773
9 | CC(C)CNC(=O)N1CCN(Cc2nc3cc(C(=O)N(C)C)ccc3o2)CC1 | 579
10 | COc1ccc(Cl)cc1NC(=O)N1CCCC(C)(C(=O)NCc2ccc(C)cc2)C1 (stereo not drawn) | 982
11 | O=C1COc2cc(S(=O)(=O)N3CCCC3C(=O)NCCN3CCCCCC3)c(Cl)cc2N1 (stereo not drawn) | 587
12 | CCc1nc2c(c(=O)n1CC(=O)Nc1cccc(OC)c1)CN(Cc1ccccc1)CC2 | 652
13 | COc1ccc(C(=O)N2CCC3(CC2)NC(=O)c2cccc(Cl)c2N3)cc1 | 738
14 | Cc1ccc(C(=O)N2C[C@@H]3C[C@H]2C[C@@H]3NS(C)(=O)=O)cc1F | 676
15 | CC(=O)Nc1ccc(C2(C(=O)NCc3cccc(C)c3)CCC2)cc1 | 773
16 | O=C(Cn1cccc(-c2nc(-c3ccccc3)no2)c1=O)Nc1ccc2c(c1)OCO2 | 815
17 | Cc1ccc(C)c(S(=O)(=O)N2CCC3(CC2)NCCN=C3NCc2ccc(F)cc2)c1 | 772
18 | Cc1ccc(NC(=O)N2CCC(n3c(-c4ccco4)nc4cccnc43)C2)cc1Cl (stereo not drawn) | 806
19 | Cc1ccccc1-c1noc(C2CCCN2S(=O)(=O)c2cccc(Cl)c2C)n1 (stereo not drawn) | 1280
20 | COc1ccc(N2CCN(C(=O)C3CCCN(c4nccc5sc(C)cc45)C3)CC2)cc1 (stereo not drawn) | 676
21 | O=C(Nc1ccc2nc(N3CCC(N4CCCCC4)CC3)cc(C(=O)O)c2c1)c1cccc(Cl)c1 | 601

Row | SMILES | RP-LC retention time [s]
22 | CCOc1ccc(-c2nn3c(CSc4ccccc4)nnc3s2)cc1OC | 987
23 | Cn1cnc2c(C(=O)N3CCN(c4ncccn4)CC3)nn(-c3ccc(Cl)cc3)c2c1=O | 766
24 | Cc1ccc(S(=O)(=O)N2CC(=O)N(c3ccc(F)cc3)C(C)(C(=O)NC3CCCC3)C2)cc1 (stereo not drawn) | 956
25 | O=C(NCc1ccccn1)C1CCN(c2ncnc3c2oc2ccccc23)CC1 | 593
26 | COc1cc(NC(=O)N2c3ccccc3CC2c2nc(C3CC3)no2)cc(OC)c1 (stereo not drawn) | 1030
27 | COc1ccc(C(O)CN2CCN(c3cccc(OC)c3)CC2)cc1 (stereo not drawn) | 647
28 | Cc1ccc(-n2nc(CO)c(C(=O)NCc3ccc4c(c3)OCO4)n2)cc1 | 940
29 | CC(C)NC(=O)c1ccc2c(c1)Sc1ncccc1C(=O)N2C(C)C | 736
30 | O=c1ccc(-c2ccc3c(c2)OCO3)nn1Cc1nc(-c2cccc(Cl)c2)no1 | 1040
31 | COc1ccc(-c2csc3c(=O)n(Cc4ccc(F)cc4)cnc23)cc1OC | 951
32 | O=C(COc1ccc(F)c(F)c1)N1CCN(c2ncccc2-c2nnc(C3CC3)o2)CC1 | 822
33 | Cc1ccc(NC(=O)N2CCCC2c2nncn2-c2ccccc2)cc1C (stereo not drawn) | 767
34 | CCCC(=O)N1CCC(C(=O)Nc2nnc(C)s2)CC1 | 590
35 | O=C(Nc1ccc2c(c1)CCC(=O)N2Cc1ccccc1)c1ccccc1C(F)(F)F | 855
36 | COc1ccc(-c2nnc(-c3ccc(-n4ccnc4)nc3)o2)cc1 | 654
37 | CCOC(=O)Cc1nc(-c2cncc(Br)c2)n[nH]1 | 673
38 | CC(C)NC(=O)N1CCCC(c2cccc(C(=O)NCc3ccc(F)cc3F)c2)C1 (stereo not drawn) | 862
39 | CCC(C)NC(=O)CCc1c(-c2ccc(Cl)cc2)nc2ccccn12 (stereo not drawn) | 653
40 | CCOC(=O)c1cc(S(=O)(=O)N2CCCC2C(=O)N(Cc2ccco2)C2CCCC2)cn1C (stereo not drawn) | 992
41 | CN(C)c1cccc(-c2nc(-c3ccc4c(c3)ncn4CCC(=O)N3CCCC3)no2)c1 | 794
42 | COC(=O)c1cc2c([nH]c1=O)CC(c1ccc(OC)cc1OC)CC2=O (stereo not drawn) | 699

Row | SMILES | RP-LC retention time [s]
43 | O=C(CN1CCc2[nH]c3c(F)c(Cl)ccc3c(=O)c2C1)NCc1ccc2c(c1)OCO2 | 661
44 | Cc1cc(C)c2c(N3CCCC3)nc(C(=O)Nc3ccc4c(c3)OCO4)nc2n1 | 656
45 | O=C1COc2ccc(S(=O)(=O)N3CCC(C(=O)NC4CCCc5ccccc54)CC3)cc2N1 (stereo not drawn) | 814
46 | Cn1c(C(=O)NCCCN2CCCC2=O)cc2c(-c3cccs3)nn(-c3ccccc3)c21 | 831
47 | COCc1nnc(C(=O)Nc2ccc(C(=O)NCCc3c[nH]c4ccc(Cl)cc34)cc2)s1 | 893
48 | CC(C)N1CCC(CC(=O)N2CCc3c(c(-c4nc(-c5ccccc5)no4)nn3C)C2)CC1 | 654
49 | Cn1cc(CN2CCC(C(=O)NCCN3CCOCC3)CC2)c2cc(Cl)ccc21 | 568
50 | CCOc1ccc(-c2cc3c(=O)n(Cc4nc(-c5ccc(OC(C)C)cc5)no4)ncn3n2)cc1 | 1260
51 | COc1ccc(-c2nc(NC(=O)c3ccc(C#N)cc3)sc2C)cc1 | 962
52 | COc1ccc(S(=O)(=O)C(CNC(=O)c2ccc3c(c2)OCO3)c2cccs2)cc1 (stereo not drawn) | 787
53 | Cc1ccc2cc(CCC(=O)NCc3ccncc3)c(=O)[nH]c2c1 | 570
54 | COCCCn1c(=O)c2ccccc2n(Cc2nc(-c3cccc(C(F)(F)F)c3)no2)c1=O | 1080
55 | CCOc1ccccc1C(=O)NC1CCN(C(=O)c2cn[nH]c2-c2ccc(F)cc2)CC1 | 683
56 | Cn1cc(-c2nc(C(=O)N3CCN(c4ccccc4Cl)CC3)cs2)c2cccnc21 | 1070
57 | O=C(COc1ccc(-c2nnc3n2CCCC3)cc1)NCc1ccc2c(c1)OCO2 | 662
58 | CCC(=O)N1CCc2cc(N3CC(C(=O)NCC(C)C)CC3=O)ccc21 (stereo not drawn) | 687
59 | Cc1ccc(C)c(S(=O)(=O)N2CCCC2c2nc(-c3ccc(Cl)cc3)no2)c1 (stereo not drawn) | 1270
60 | CCc1ccc(S(=O)(=O)N2CCC3(CC2)NCCN=C3NCc2ccccc2)cc1 | 742
61 | Cc1ccc(C)c(-c2csc(NC(=O)c3sc(-c4ccccc4)nc3C)n2)c1 | 1350
62 | Cc1cc(=O)n(Cc2ccc(OC(F)(F)F)cc2)c(Nc2ccc(F)c(F)c2)n1 | 1300
63 | Cc1cccc(Cn2c(=O)n(CCNC(=O)c3cccn3C)c3ncccc32)c1 | 826
